Key:
total cholesterol = experiment: in vivo screen designated APCC (total cholesterol in rats on PCC diet); design: species or system male Sprague-Dawley rats; settings: Rattus norvegicus, PCC diet overnight, read-out: APCC (%ΔTC): percent change in total cholesterol between control and drug-treated animals
Description: In one in vivo screen designated APCC, male Sprague-Dawley rats (200 to 225 g) were randomly divided into treatment groups and dosed at 4 PM with either vehicle (CMC/Tween) or suspensions of compounds in vehicle. The normal chow diet was then replaced with the PCC diet (5.5% peanut oil, 1.5% cholesterol, and 0.5% cholic acid). The rats consumed this diet ad libitum during the night and were sacrificed at 8 AM to obtain blood samples for cholesterol analysis using standard procedures. Statistical differences between mean cholesterol values for the same vehicle were determined using analysis of variance followed by Fisher's least significant test. The results of this trial for representative compounds of the present invention appear in Table II wherein percent change means the difference in total cholesterol between control, and the drug-treated animals.

adrenal gland = experiment: in vivo toxicity screen in guinea pigs (adrenal histopathology); design: species or system male guinea pigs of the Hartley strain; settings: 100 mg/kg daily by gavage, 2 weeks; for adrenal toxicity class: oleic acid vehicle
Description: The nontoxic nature of representative compounds of the present invention was measured and compared against previously disclosed tetrazole urea ACAT inhibitors using an in vivo toxicity screen developed by Dominick, et al., 1993. Male guinea pigs of the Hartley strain (450-500 g) were obtained from Charles River and randomly divided into treatment groups. They were fed standard guinea pig chow ad libitum and dosed daily (AM) by gavage (100 mg/kg). The test compounds were dissolved or suspended in an oleic acid vehicle to facilitate absorption. After 2 weeks the animals were sacrificed by CO2 asphyxiation in the nonfasted state 16 hours after the last dose. Adrenal glands were weighed, fixed in 10% formalin, processed by routine paraffin techniques, sectioned, and then stained with hematoxylin and eosin for light microscopy. Toxicity was defined by the incidence, severity, and complexity of adrenal histopathologic alterations in the zona fasciculata (e.g., adrenal cortical atrophy, increased coarse vacuolation, single cell necrosis, inflammatory cell infiltrates, mineralization/ectopic bone formation, and increased cytoplasmic eosinophilia).

## CC(C)c1cccc(C(C)C)c1NC(=O)N(c1ccccc1)c1nnn(CCCCCCCCOC2CCCCO2)n1 (racemic) [Example 10, (±)N'-[2,6-bis(1-methylethyl)phenyl]-N-phenyl-N-[2-[8-[(tetrahydro-2H-pyran-2-yl)oxy]octyl]-2H-tetrazol-5-yl]-urea]
Total cholesterol
  change in vivo at 30 mg/kg: -42%

## CCCCCn1nnc(N(C(=O)Nc2c(OC)cc(OC)cc2OC)c2ccccc2)n1 [Example 8, N-(2-pentyl-2H-tetrazol-5-yl)-N-phenyl-N'-(2,4,6-trimethoxyphenyl)-urea]
Total cholesterol
  change in vivo at 30 mg/kg: -43%

## CCCCCCCCCCCCn1nnc(N(C(=O)Nc2c(OC)cc(OC)cc2OC)C2CCCCC2)n1 [Example 5, N-cyclohexyl-N-(2-dodecyl-2H-tetrazol-5-yl)-N'-(2,4,6-trimethoxyphenyl)-urea]
Total cholesterol
  change in vivo at 30 mg/kg: -67%
Adrenal gland
  drug related adrenal changes: no drug related adrenal changes
  adrenal toxicity class: nontoxic to the adrenal gland

## CC(C)c1cccc(C(C)C)c1NC(=O)N(c1ccccc1)c1nnn(CCCCCCCCO)n1 [Example 13, N'-[2,6-Bis(1-methylethyl)phenyl]-N-[2-(8-hydroxyoctyl)-2H-tetrazol-5-yl]-N-phenyl-urea]
Total cholesterol
  change in vivo at 30 mg/kg: -17%

## CCN(CC)CCCCCCCCn1nnc(N(C(=O)Nc2c(C(C)C)cccc2C(C)C)c2ccccc2)n1 [Example 17, N'-[2,6-bis(1-methylethyl)phenyl]-N-[2-[8-(diethylamino)octyl]-2H-tetrazol-5-yl]-N-phenyl-urea]
Total cholesterol
  change in vivo at 30 mg/kg: -30%

## CCCCCCCCCCCCCCn1nnc(N(C(=O)Nc2c(OC)cc(OC)cc2OC)c2ccccc2)n1 [Example 7, N-phenyl-N-(2-tetradecyl-2H-tetrazol-5-yl)-N'-(2,4,6-trimethoxyphenyl)-urea]
Total cholesterol
  change in vivo at 30 mg/kg: -22%

## CCCCCCCCCCCCn1nnc(N(C(=O)Nc2ccc(F)cc2F)c2ccccc2)n1 [Example 3, N'-(2,4-Difluorophenyl)-N-(2-dodecyl-2H-tetrazol-5-yl)-N-phenyl-urea]
Total cholesterol
  change in vivo at 30 mg/kg: -63%

## O=C(Nc1ccc(F)cc1F)N(c1ccccc1)c1nnn(CCCCCCCCOC2CCCCO2)n1 (racemic) [Example 12, (±)N'-(2,4-difluorophenyl)-N-phenyl-N-[2-[8-[(tetrahydro-2H-pyran-2-yl)oxy]octyl]-2H-tetrazol-5-yl]-urea]
Total cholesterol
  change in vivo at 30 mg/kg: -37%

## CCCCCCCCCCCCCn1nnc(NC(=O)Nc2c(C(C)C)cccc2C(C)C)n1 [N-[2,6-bis(1-methylethyl)-phenyl]-N'-(2-tridecyl-2H-tetrazol-5-yl)-urea]
Adrenal gland
  cytotoxic zonal atrophy of the zona fasciculata (treated animals affected): 4/6
  increased coarse vacuoles (animals affected): 5/6
  inflammatory cell infiltrates (animals affected): 2/6
  necrosis of the adrenal cortex (animals affected): 3/6
  adrenal toxicity class: highly toxic to the adrenal gland

## COc1cc(OC)c(NC(=O)N(c2ccccc2)c2nnn(CCCCCCCC=O)n2)c(OC)c1 [Example 16, N-[2-(8-oxooctyl)-2H-tetrazol-5-yl]-N-phenyl-N'-(2,4,6-trimethoxyphenyl)-urea]
Total cholesterol
  change in vivo at 30 mg/kg: -8%

## COc1cc(OC)c(NC(=O)N(c2ccccc2)c2nnn(CCCCCCCCO)n2)c(OC)c1 [Example 14, N-[2-(8-hydroxyoctyl)-2H-tetrazol-5-yl]-N-phenyl-N'-(2,4,6-trimethoxyphenyl)-urea]
Total cholesterol
  change in vivo at 30 mg/kg: -15%

## COc1cc(OC)c(NC(=O)N(c2ccccc2)c2nnn(CCCCCCCCOC3CCCCO3)n2)c(OC)c1 (racemic) [Example 11, (±)N-phenyl-N-[2-[8-[(tetrahydro-2H-pyran-2-yl)oxy]octyl]-2H-tetrazol-5-yl]-N'-(2,4,6-trimethoxyphenyl)-urea]
Total cholesterol
  change in vivo at 30 mg/kg: -50%

## CCCCCCCCCCCCn1nnc(N(C(=O)Nc2c(C(C)C)cccc2C(C)C)C2CCCCC2)n1 [Example 4, N'-[2,6-bis(1-methylethyl)phenyl]-N-cyclohexyl-N-(2-dodecyl-2H-tetrazol-5-yl)-urea]
Total cholesterol
  change in vivo at 30 mg/kg: -10%

## CCCCCCCCCCCCn1nnc(N(C(=O)Nc2ccc(F)cc2F)C2CCCCC2)n1 [Example 6, N-Cyclohexyl-N'-(2,4-difluorophenyl)-N-(2-dodecyl-2H-tetrazol-5-yl)-urea]
Total cholesterol
  change in vivo at 30 mg/kg: -33%

## CCCCCCCCCCCCn1nnc(NC(=O)Nc2c(C(C)C)cccc2C(C)C)n1 [N-[2,6-bis(1-methylethyl)-phenyl]-N'-(2-dodecyl-2H-tetrazol-5-yl)-urea]
Adrenal gland
  cytotoxic zonal atrophy of the zona fasciculata (treated animals affected): 3/6
  increased coarse vacuoles (animals affected): 5/6
  inflammatory cell infiltrates (animals affected): 2/6
  necrosis of the adrenal cortex (animals affected): 2/6
  adrenal toxicity class: highly toxic to the adrenal gland

## CCCCCCCCCCCCn1nnc(N(C(=O)Nc2c(C(C)C)cccc2C(C)C)c2ccccc2)n1 [Example 1, N'-[2,6-Bis(1-methylethyl)phenyl]-N-(2-dodecyl-2H-tetrazol-5-yl)-N-phenyl-urea]
Total cholesterol
  change in vivo at 30 mg/kg: -52%

## CCCCCCCCCCCCn1nnc(CN(Cc2ccccc2)C(=O)Nc2c(OC)cc(OC)cc2OC)n1 [Example 9, N-(2-Dodecyl-2H-tetrazol-5-ylmethyl)-N-(phenylmethyl)-N'-(2,4,6-trimethoxyphenyl)-urea]
Total cholesterol
  change in vivo at 30 mg/kg: -49%

## CC(C)c1cccc(C(C)C)c1NC(=O)N(c1ccccc1)c1nnn(CCCCCCCC=O)n1 [Example 15, N'-[2,6-bis(1-methylethyl)phenyl]-N-[2-(8-oxooctyl)-2H-tetrazol-5-yl]-N-phenyl-urea]
Total cholesterol
  change in vivo at 30 mg/kg: -29%

## CCCCCCCCCCCCn1nnc(N(C(=O)Nc2c(OC)cc(OC)cc2OC)c2ccccc2)n1 [Example 2, N-(2-dodecyl-2H-tetrazol-5-yl)-N-phenyl-N'-(2,4,6-trimethoxyphenyl)-urea]
Total cholesterol
  change in vivo at 30 mg/kg: -74%
